Source: patent US5633230A, “Treatment of cytomegalovirus infection” (priority 1994, dated 1997)
pIC50: −log10 of the molar value. Values after ≈ are worked out from the molar mass of the structure shown. Values joined by “and” are separate entries in the source; they are usually repeats but may differ in a detail not shown here. Equal values may be shown once.

Legend:
[1] = test system: Smith strain of murine CMV; experiment: murine CMV infection in cyclophosphamide-immunosuppressed mice; type: in vivo, BALB/c mice; details: for Surv/Total / Mean Day to Death ± S.D.: infected mice
Description: This immunosuppression model mimics the human patient situation, wherein the HCMV-induced disease in immunosuppressed individuals can often be fatal. The particular model used for evaluating potential antiviral activity has been described by Smee et al in J. Infect. Dis., 1991, 164: 958.
The Smith strain of murine CMV, obtained originally from the American Type Culture Collection (Rockville, Md.) was used. A mouse salivary gland preparation was used for the virus pool. An inoculation of 2×10^4 plaque forming units of the virus was used in the antiviral study. Female BALB/c mice weighing 10-12 g were quarantined 24 hr prior to use, and maintained on Wayne Lab Blox and tap water ad libitum the duration of the study.
Ganciclovir (DHPG) was purchased from a commercial source, and cyclophosphamide was purchased from Sigma Chemical Co. (St. Louis, Mo.).
To determine tissue virus titre, homogenates of infected mouse organs were titrated for virus using C127/I cells in 96-well microplates. Each tissue sample was homogenized and titrated separately with 3 micro wells used per dilution; plates were read by microscopic examination for viral-induced cytopathic effect, with 50% end points determined by the Reed-Muench method. Mean viral titers were expressed at 50% cell culture infectious doses (CCID50)/gram of tissue.
For statistical evaluation, increases in mean day to death and reductions in viral titers were assessed using the two-tailed Mann-Whitney U test. Total survivor increases were evaluated by chi square analysis with Yates'.

[2] = test system: ganciclovir-resistant CMV strains 759^r D100 and GDG^r K17 and foscarnet-resistant CMV strains PFA^r D100 and PFA^r B300; details: range over strains 759^r D100, GDG^r K17, PFA^r D100, PFA^r B300; MRC-5; drug pre- and post-infection
Experimental: This stock solution was subsequently diluted in cell culture medium to obtain the test concentrations used in the study. Ganciclovir (GCV) was dissolved in sterile, deionized water, and the drug concentration measured spectrophotometrically (7.8mM). Foscarnet (phosphonoformic acid, PFA) was dissolved in sterile, deionized water to a final concentration of 100 mM. Aliquots of the stock solutions were stored at -70° C.
Drug-resistant human CMV strains 759^r D100, GDG^r K17, PFA^r D100 and PFA^r B300 were obtained from Dr. Donald M. Coen, Harvard Medical School, Boston, Mass.
The drug stock solutions were diluted with fresh culture medium to obtain the desired test concentrations in the range 0.5-2500 μM.
MRC-5 cells (4-5×10^5 per well) were grown for 24 hours at 37° C. in 5% CO2 atmosphere in D-MEM/F-12FBS medium containing varying concentrations of drug. At the end of the pre-treatment period, the cells were infected with a suspension containing 50 plaque forming units of CMV (MOI=0.0001). The virus was allowed to absorb for 60 minutes at 37° C. in the absence of drug, at which time the virus innoculum was washed away, and the cells fed with fresh growth medium containing drug. […] Vital plaques were counted under a microscope after removing the culture medium from the wells, staining the cells with 1.1% Crystal Violet solution, and washing twice with tap water. […]

CMV strain AD-169 [3] = experiment: plaque reduction assay, CMV AD-169 in MRC-5 cells; type: cell-based, human CMV; details: CMV AD-169, MRC-5 (human embryonic lung), 24 h drug pretreatment
Experimental: (§1) The following procedures were then used to determine inhibitory effects of AV-9 on the replication of CMV. […] This was accomplished by diluting the stock peptide solution in growth medium (10% fetal bovine serum and 10 μg/ml gentamicin in Dulbecco's MEM (DMEM)) used to overlay the monolayers.
After pretreatment with AV-9, the monolayers were overlaid with 0.1 ml log10 dilutions of virus (CMV strain AD-169) ranging from 10^-1 to 10^-6. Virus was then allowed to adsorb for 1 hour at 37° C. The virus inoculum was removed and the monolayers were overlayed with DMEM containing 2% FBS, 10 ug/ml gentamicin and a specified concentration of AV-9. Virus was next allowed to replicate for 7 to 10 days until the plaques were judged to be well developed, and then the monolayers were fixed and stained with a solution of 1% crystal violet in 1% formaldehyde,70% ethanol. Finally, plaques (each representing a single viable virion) were counted and checked microscopically.
(§2) In a like manner, plaque reduction assays were also performed against other CMV strains and another CMV host, with comparison against ganciclovir (GCV) and foscarnet (FCV).

[4] = toxicity control mice, immunosuppressed, uninfected; details: for Mean Body Weight Change: start of treatment to 24 hr after final treatment; for Surv/Total: toxicity controls
Experimental: The mice were immunosuppressed by intraperitoneal (i.p.) injection with 100 mg/kg/day of cyclophosphamide administered on days -1, +3, +6, +10, +14 and +18 relative to virus inoculation. […] In a second portion of the study, the compound was administered i.p. in a dose of 0.1 mg/kg/day once daily from day -2 through +10. Ganciclovir in a dose of 50 mg/kg/day was injected i.p. once daily for 10 days beginning 24 hr post-virus exposure (days +1→+10). A total of 15 infected mice/dose were used. […] Five toxicity control mice were used at each dose; these mice were treated in parallel with the infected mice, and were weighed on the initial day of treatment and again 24 after the final treatment. […] Normal controls were weighed and held in parallel with the toxicity controls.

physchem = details: water
CMV strain AD-169 [5] = experiment: plaque reduction assay, CMV AD-169 in HFF cells; type: cell-based, human CMV; details: CMV AD-169, HFF, without 24 h drug pretreatment
Experimental: as §1
[…] Virus was then allowed to adsorb for 1 hour at 37° C. The virus inoculum was removed and the monolayers were overlayed with DMEM containing 2% FBS, 10 ug/ml gentamicin and a specified concentration of AV-9. Virus was next allowed to replicate for 7 to 10 days until the plaques were judged to be well developed, and then the monolayers were fixed and stained with a solution of 1% crystal violet in 1% formaldehyde,70% ethanol. Finally, plaques (each representing a single viable virion) were counted and checked microscopically.
as §2

[6] = mouse, in vivo
Experimental: Ten mice were injected intravenously in the tail vein with 0.25 mL of a solution of 26 μg of ^14 C-labelled compound in 10 mL PBS, and ten mice were given the same dose by subcutaneous injection in the abdomen. One mouse from each group was sacrificed at the time points noted in FIGS. 1 and 2, and the noted organs were weighed and digested to homogeneity for scintillation counting. Counts were measured and used to calculate the amount and concentration of drug in each organ.

CMV strain AD-169 [7] = experiment: CPE assay, CMV AD-169 in HFF cells; type: cell-based; details: CMV AD-169, HFF (human foreskin fibroblast), without 24 h drug pretreatment
Description: *CPE assay, all others are plaque reduction assays.

[8] = 0.2 mg/kg/day i.p. every other day, day 9
[9] = 0.2 mg/kg/day i.p. every other day, 9 days after virus challenge
[10] = 0.07 mg/kg/day i.p., days -2,0,+2,+4,+6,+8,+10
[11] = 0.1 mg/kg/day i.p., daily days -2 through +10
[12] = 0.2 mg/kg/day i.p., days -2,0,+2,+4,+6,+8,+10
[13] = 0.7 mg/kg/day i.p., days -2,0,+2,+4,+6,+8,+10
[14] = 2.0 mg/kg/day i.p., days -2,0,+2,+4,+6,+8,+10

## CC(=O)N[C@H](CCCNC(=N)N)C(=O)N[C@H](CCCNC(=N)N)C(=O)N[C@H](CCCNC(=N)N)C(=O)N[C@H](CCCNC(=N)N)C(=O)N[C@H](CCCNC(=N)N)C(=O)N[C@H](CCCNC(=N)N)C(=O)N[C@H](CCCNC(=N)N)C(=O)N[C@H](CCCNC(=N)N)C(=O)N[C@H](CCCNC(=N)N)C(N)=O [AV-9, acetyl-[D-Arg]9 -NH2]
[1]; [8]
  animals without detectable virus in lungs: one had no detectable virus
  animals without detectable virus in spleen, of the five sampled: three had no detectable virus
  effect on salivary gland virus titers: No effect
  reduction of mean lung virus titer compared to placebo-treated controls: 0.6 log10
[1]; [9]
  Tissue Virus Titer ± S.D., Lung: 3.3 ± 1.9 log10 CCID50/g
  Tissue Virus Titer ± S.D., Salivary Gland: 7.6 ± 1.2 log10 CCID50/g
  Tissue Virus Titer ± S.D., Spleen: 1.5 ± 2.26 log10 CCID50/g
[1]; [10]
  Surv/Total: 0/8
[1]; 0.07 mg/kg/day i.p., days -2,0,+2,+4,+6,+8,+10, P<0.05 vs saline
  Mean Day to Death ± S.D.: 13.4 ± 2.6 days
[1]; [11]
  Mean Day to Death ± S.D.: 11.3 ± 0.5 days
  Surv/Total: 0/8
[1]; [12]
  Surv/Total: 0/8
[1]; 0.2 mg/kg/day i.p., days -2,0,+2,+4,+6,+8,+10, P<0.01 vs saline
  Mean Day to Death ± S.D.: 18.5 ± 3.7 days
[1]; [13]
  Mean Day to Death ± S.D.: 11.6 ± 1.6 days
  Surv/Total: 0/7
[1]; [14]
  Mean Day to Death ± S.D.: 12.1 ± 1.3 days
  Surv/Total: 0/7
[2]
  pIC50: 5.68 to 5.89
CMV strain AD-169 [3]
  pIC50: 5.59 and 5.32 and 5.57
[4]; 0.07 mg/kg/day i.p. every other day
  Mean Body Weight Change: 2.7 g
[4]; 0.1 mg/kg/day i.p. daily days -2 to +10
  Mean Body Weight Change: 3.1 g
[4]; 0.2 mg/kg/day i.p. every other day
  Mean Body Weight Change: 2.2 g
[4]; 0.7 mg/kg/day i.p. every other day
  Mean Body Weight Change: 2.4 g
[4]; 2.0 mg/kg/day i.p. every other day
  Mean Body Weight Change: 1.9 g
[4]; all doses
  other signs of toxicity (hunching, prostration, ruffled fur, tremors): No other signs of toxicity
[4]; all doses, Table 3
  toxicity, overall assessment: reasonably non-toxic
[4]; [10]
  Surv/Total: 5/5
[4]; [11]
  Surv/Total: 5/5
[4]; [12]
  Surv/Total: 5/5
[4]; [13]
  Surv/Total: 5/5
[4]; [14]
  Surv/Total: 5/5
physchem
  solubility: ~1000 mg/mL (≈ 683 mM)
CMV strain AD-169 [5]
  pIC50: 4.92
[6]
  speed of distribution to tissues: rapid distribution of drug to tissues
  tissue distribution, organs with highest levels: highest and most prolonged levels are attained in the liver, followed by the kidneys and spleen
CMV strain AD-169 [7]
  pIC50: 5.24
